Among the test systems are SNB-19 CNS; A549 NSCLC; SK-OV-3 ovarian; IGROV1 ovarian; HT29 colon; LOX IMVI melanoma; SF-295 CNS; CCRF-CEM leukemia; MALME-3M melanoma.
Holding throughout (test): growth of human tumour cells (NCI), 48 h

Molecules are shown by their SMILES.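 How tested: cells in 96-well plates exposed to compound for 48 hours at five concentrations. GI50 marks 50% less growth. The concentration for full growth arrest is given as TGI.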

Regarding `COc1cc(O)c(C(=O)/C=C/c2ccc(OC)c(OCc3ccccc3)c2)c(OC)c1`, the TGI in the experiment on SNB-19 CNS, with A549 NSCLC, in the experiment on SK-OV-3 ovarian, in the experiment with IGROV1 ovarian, in the experiment with HT29 colon and in the experiment with LOX IMVI melanoma was over 100 µM in each case. Further, the TGI in the experiment with SF-295 CNS is 2.43 µM; in the experiment on CCRF-CEM leukemia it was over 100 µM.

As for `CCOCCOCCOCCOCCOCCOCCOCCOCCOCCO` (tested in a mixture with another compound), the GI50 in the experiment with MALME-3M melanoma was 3.65 µM; in the experiment with A549 NSCLC, 1.21 µM; in the experiment with SK-OV-3 ovarian it was 3.91 µM; in the experiment with IGROV1 ovarian, 3.19 µM; in the experiment on HT29 colon, 1.16 µM; in the experiment on LOX IMVI melanoma, 0.81 µM. Also, the GI50 with SF-295 CNS was 0.869 µM; with CCRF-CEM leukemia, 1.06 µM. Moreover, the TGI with MALME-3M melanoma was 9.23 µM; with A549 NSCLC, 8.66 µM; in the experiment with SK-OV-3 ovarian it was 13.4 µM; in the experiment on IGROV1 ovarian, 15.8 µM; in the experiment with HT29 colon, 4.36 µM; in the experiment with LOX IMVI melanoma, 2.9 µM. Moreover, the TGI in the experiment with SF-295 CNS is 4.12 µM; in the experiment on CCRF-CEM leukemia, over 32.5 µM.

For the compound `CC(=O)Nc1ccc(/C=c2\sc3nnc(-c4cccnc4)n3c2=O)cc1`, the TGI in the experiment with SNB-19 CNS is 77.2 µM; in the experiment with MALME-3M melanoma it was 37.3 µM; in the experiment with A549 NSCLC, over 100 µM; with SK-OV-3 ovarian it was 66 µM; with IGROV1 ovarian, 32.5 µM; with HT29 colon, 34.5 µM. In addition, the TGI in the experiment with LOX IMVI melanoma was 30.7 µM; with SF-295 CNS, over 100 µM; in the experiment with CCRF-CEM leukemia, 53.9 µM.

Consider `Cc1ccc(S(=O)(=O)C2CC2(Cl)Cl)cc1` (stereo not given), for which the TGI in the experiment with SNB-19 CNS was over 100 µM; in the experiment on MALME-3M melanoma, 48.8 µM; in the experiment with A549 NSCLC, over 100 µM; in the experiment on SK-OV-3 ovarian, over 100 µM; with IGROV1 ovarian, 72.1 µM; with HT29 colon, 37.5 µM. Besides, the TGI was 35.6 µM in the experiment on LOX IMVI melanoma, over 100 µM in the experiment with SF-295 CNS and 35 µM in the experiment with CCRF-CEM leukemia.

Turning to `Fc1ccc(Nc2nc(Nc3ccc(-c4nc5ccccc5[nH]4)cc3)c3cn[nH]c3n2)cc1`, the GI50 was 3.16 µM in the experiment on SNB-19 CNS; 1.72 µM with MALME-3M melanoma; 2.75 µM with A549 NSCLC; 5.03 µM with SK-OV-3 ovarian; 1.75 µM in the experiment with IGROV1 ovarian; 1.93 µM in the experiment with HT29 colon. Also, the values for the GI50 in the experiment with LOX IMVI melanoma, in the experiment with SF-295 CNS and in the experiment on CCRF-CEM leukemia were 1.79 µM, 1.87 µM and 2.63 µM, respectively. In addition, the TGI in the experiment on SNB-19 CNS was 9.61 µM; with MALME-3M melanoma it was 3.51 µM; in the experiment with A549 NSCLC it was 6.78 µM; with SK-OV-3 ovarian it was 17.5 µM; with IGROV1 ovarian, 3.84 µM; with HT29 colon, 4 µM. Besides, the values for the TGI in the experiment with LOX IMVI melanoma, in the experiment on SF-295 CNS and with CCRF-CEM leukemia were 3.62 µM, 4.08 µM and 6.9 µM, respectively.

On to `CCN(CC)C(=S)SS(C)(=O)=O`, for which the TGI in the experiment on SNB-19 CNS was 58.4 µM; with MALME-3M melanoma it was 58.4 µM; with SK-OV-3 ovarian it was over 100 µM; with IGROV1 ovarian, over 100 µM; in the experiment on HT29 colon, 31 µM; in the experiment with LOX IMVI melanoma, 26.5 µM. In the experiment with SF-295 CNS, this compound displayed a TGI of 98 µM.

Regarding `O=C(N/C(=C\c1ccc(/C=C(\NC(=O)c2ccccc2)c2nc3c(O)nc(S)nc3[nH]2)cc1)c1nc2c(O)nc(S)nc2[nH]1)c1ccccc1`, the TGI in the experiment on SNB-19 CNS, with MALME-3M melanoma, in the experiment on A549 NSCLC, in the experiment with SK-OV-3 ovarian, with IGROV1 ovarian and in the experiment with HT29 colon was over 100 µM in each case. Moreover, the TGI with LOX IMVI melanoma, with SF-295 CNS and in the experiment on CCRF-CEM leukemia was over 100 µM in each case.

`NC(=O)c1ncn(C2OC(CO)C(O)C2O)c1O` (stereo not given): the TGI is over 100 µM in the experiment with SNB-19 CNS; over 100 µM with MALME-3M melanoma; over 100 µM in the experiment with A549 NSCLC; over 100 µM with IGROV1 ovarian; 46.5 µM in the experiment on HT29 colon; over 100 µM with LOX IMVI melanoma. Moreover, the TGI with SF-295 CNS and with CCRF-CEM leukemia was over 100 µM throughout.

On to `O=C1[C@@H]2C(c3ccccc3[N+](=O)[O-])=NO[C@@H]2C(=O)N1c1ccc(Cc2ccc(N3C(=O)[C@H]4C(c5ccccc5[N+](=O)[O-])=NO[C@H]4C3=O)cc2)cc1`, for which the TGI in the experiment with SNB-19 CNS, in the experiment on MALME-3M melanoma, with IGROV1 ovarian, with HT29 colon, in the experiment on LOX IMVI melanoma and with SF-295 CNS was over 100 µM each time. In the experiment with CCRF-CEM leukemia, this compound gave a TGI of over 100 µM.

`COc1ccc(C(=O)C(C(=O)C(=O)NCCCNC(=O)C(=O)C(C(=O)c2ccc(OC)cc2)c2ccc(OC)cc2)c2ccc(OC)cc2)cc1` (stereo not given): the TGI in the experiment on SNB-19 CNS, in the experiment on MALME-3M melanoma, in the experiment with A549 NSCLC, with SK-OV-3 ovarian, with IGROV1 ovarian and in the experiment on HT29 colon was over 100 µM in each case. Also, the TGI in the experiment with LOX IMVI melanoma, with SF-295 CNS and with CCRF-CEM leukemia was over 100 µM each time.

Consider `Cc1ccc(Nc2nc(-c3ccc(-c4ccc([N+](=O)[O-])cc4)o3)cs2)cc1`, for which the TGI with SNB-19 CNS, in the experiment with MALME-3M melanoma, with A549 NSCLC, with SK-OV-3 ovarian, in the experiment with IGROV1 ovarian and with HT29 colon was over 100 µM in each case. The TGI with LOX IMVI melanoma and with SF-295 CNS was over 100 µM each time.

For `CC1=C2C=CC(=O)C[C@@]2(C)CCC1`, the TGI in the experiment with SNB-19 CNS, in the experiment on MALME-3M melanoma, in the experiment on A549 NSCLC, in the experiment with SK-OV-3 ovarian, in the experiment with IGROV1 ovarian and in the experiment on HT29 colon was over 100 µM each time. Moreover, the TGI in the experiment with LOX IMVI melanoma, in the experiment on SF-295 CNS and in the experiment on CCRF-CEM leukemia was over 100 µM throughout.

Consider `CN1CCN(c2nc(N)c(Br)c(Cl)n2)CC1`, for which the TGI in the experiment on SNB-19 CNS, with MALME-3M melanoma, with A549 NSCLC, in the experiment on SK-OV-3 ovarian, in the experiment on IGROV1 ovarian and in the experiment on LOX IMVI melanoma was over 100 µM in each case. Further, the TGI in the experiment with SF-295 CNS and with CCRF-CEM leukemia was over 100 µM each time.

For the origin of these results see PubChem BioAssay (NCI).
